Tested on: HEK293T cells
Assay: Pipette tip filter loading of fluorescein-labeled cargo into HEK293T cells, flow cytometry
Type: cell-based
Details: pipetted through the filter vs not passed through the filter, 0.4 million HEK293T, 12 hours recovery
Description: To establish if other cargoes can be loaded with this method, 0.4 million HEK293T cells were mixed with 50 pmoles of fluorescein-labeled 21nt DNA oligonucleotide, 50 pmoles of fluorescein-labeled 21nt double-stranded siRNA, or 5 μg of fluorescein-dextran (MW 3000-5000) in 500 μl of OptiMEM. The mixture was aspirated and dispensed through the filter with the 1 ml pipette in triplicates. The mixture was then transferred into 2 ml of regular DMEM medium and the cells allowed to recover for 12 hours at 37° C. After which, the cells were washed 3 times with DMEM and collected for flow cytometry.

Question: With Dextran as the substance, how does the “percentage of cells having a higher than background fluorescence” value read?
Answer: clearly higher
